The nature of the series: transdermal shaved rat model: delivery of tritiated compound from a gel patch, counted in urine and feces. It is filed as in vivo, Rats. Particulars: 2.5 cm^2 patch.

Text: Rats were anesthetized with N2O/O2 and [sequence] fluorocarbon anesthesia using a metering device (Quantifier VMC Anesthesia Machine, Matrix Media Inc.) The rat's back was carefully shaved using an electric razor the day before the transdermal experiment, and no abrasions in the skin surface were apparent.
Compound was applied to the skin using a Hilltop Chamber® transdermal delivery plastic device, in which the compound was contained in a 3% hydroxypropyl cellulose gel. The device was glued in place using cyanomethacrylate (Superbinder 495, Newark Electronics).
The aqueous formulation was 2% in N-[N-[5-[4-(aminoiminomethyl)phenyl]-1-oxopentyl]-L-α-aspartyl]-L-phenylalanine, monohydrochloride (10 mg N-[N-[5-[4-(aminoiminomethyl)phenyl]-1-oxopentyl]-L-α-aspartyl]-L-phenylalanine, monohydrochloride 0.5 ml gel/2.5 cm^2 patch). […] The amount of compound in a sample was calculated from the number of counts detected and the specific radioactivity of the compound in the patch.
Urine and feces were collected daily after patch application as indicated in the Table I. Counts were combined to achieve the total amount delivered. Urine was counted directly by scintillography (Hionic Fluid, Packard Co., Mark III), while feces, were processed by mechanical mixing in saline followed by oxidization of a dried aliquot to tritiated water in an oxidizer (Oxidizer Machine, Packard).

For the compound `CCOC(=O)C[C@H](NC(=O)CCCCc1ccc(C(=N)N)cc1)C(=O)N[C@@H](Cc1ccccc1)C(=O)OCC` [N-[N-[5-[4-(aminoiminomethyl)phenyl]-1-oxopentyl]-L-α-aspartyl]-L-phenylalanine diethyl ester], the average amount delivered (urine and feces counts combined for the total amount delivered) was found to be 4.6 ± 1.9 mg.

As for “N-[N-[5-[4-(aminoiminomethyl)phenyl]-1-oxopentyl]-L-α-aspartyl]-L-phenylalanine, monohydrochloride”, under “amount calculated from [3H] counts”, the “average amount delivered into the urine” value is listed as 48 mg.

Values taken from EP0729362B1, “TRANSDERMAL COMPOSITION OF N- N- 5- 4-(AMINOIMINOMETHYL)PHENYL]-1-OXOPENTYL]-L-alpha-ASPARTYL]-L-PHENYLALANINE OR ITS ESTERS AND THEIR PHARMACEUTICALLY ACCEPTABLE SALTS” (G.D. SEARLE & CO., priority 1993, dated 1995).
